Experimental data from ChEMBL document CHEMBL2311506, “Novel benzoxazole inhibitors of mPGES-1” (Bioorg Med Chem Lett, 2013).

Key:
[1] = Half life in human liver microsomes; assay type: ADME, Microsome
[2] = Half life in dog at 0.25 mg/kg, iv; assay type: ADME, organism-based, Canis lupus familiaris; design: dose 0.25 mg/kg, route intravenous; details: in vivo
[3] = Tmax in dog at 0.5 mg/kg, po; assay type: ADME, organism-based, Canis lupus familiaris; design: dose 0.5 mg/kg, route oral; details: in vivo
[4] = Plasma protein binding in rat; assay type: ADME, cell-free; details: read-out: PPB (converted)
[5] = Oral bioavailability in dog at 0.5; assay type: ADME, organism-based, Canis lupus familiaris; details: in vivo
[6] = Half life in human hepatocytes; assay type: ADME, cell-based, Hepatocyte
[7] = Mean residence time in dog at 0.25 mg/kg, iv; assay type: ADME, organism-based, Canis lupus familiaris; design: dose 0.25 mg/kg, route intravenous; details: in vivo
[8] = molecular target: T1, Prostaglandin G/H synthase 2 (Homo sapiens, UniProt P35354); experiment: Inhibition of COX2 in human fetal fibroblast assessed as SnCl2-induced PGF2alpha production after 40 mins by ELISA
T1 sequence (P35354 whole entry): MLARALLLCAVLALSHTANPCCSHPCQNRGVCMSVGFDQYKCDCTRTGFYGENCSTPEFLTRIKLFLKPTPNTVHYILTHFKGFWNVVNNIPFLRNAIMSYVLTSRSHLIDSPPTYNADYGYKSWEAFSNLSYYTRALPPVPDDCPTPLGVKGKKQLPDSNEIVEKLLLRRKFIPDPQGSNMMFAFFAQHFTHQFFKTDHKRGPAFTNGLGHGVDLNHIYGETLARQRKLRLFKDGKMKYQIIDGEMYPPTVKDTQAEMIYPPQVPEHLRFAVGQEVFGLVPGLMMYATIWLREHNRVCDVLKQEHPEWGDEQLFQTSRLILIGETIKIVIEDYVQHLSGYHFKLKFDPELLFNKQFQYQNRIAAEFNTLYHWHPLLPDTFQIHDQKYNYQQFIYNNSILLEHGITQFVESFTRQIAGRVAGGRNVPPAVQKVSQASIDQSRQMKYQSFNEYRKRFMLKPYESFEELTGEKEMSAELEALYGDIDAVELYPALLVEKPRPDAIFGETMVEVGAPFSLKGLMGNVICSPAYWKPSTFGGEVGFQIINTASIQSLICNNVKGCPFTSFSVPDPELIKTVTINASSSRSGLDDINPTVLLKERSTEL

[9] = Permeability of the compound by pampa; assay type: ADME; details: read-out: permeability
[10] = Half life in rat liver microsomes; assay type: ADME, Microsome
[11] = Inhibition of recombinant rat mPGES-1 using PGH2 as substrate incubated 20 mins prior to substrate addition measured after 30 secs by EIA
[12] = Volume of distribution at steady state in dog at 0.25 mg/kg, iv; assay type: ADME, organism-based, Canis lupus familiaris; design: dose 0.25 mg/kg, route intravenous; details: in vivo, read-out: Vdss
[13] = molecular target: Hematopoietic prostaglandin D synthase (Homo sapiens, UniProt O60760); experiment: Inhibition of human PGDS
Hematopoietic prostaglandin D synthase, sequence (O60760 whole entry): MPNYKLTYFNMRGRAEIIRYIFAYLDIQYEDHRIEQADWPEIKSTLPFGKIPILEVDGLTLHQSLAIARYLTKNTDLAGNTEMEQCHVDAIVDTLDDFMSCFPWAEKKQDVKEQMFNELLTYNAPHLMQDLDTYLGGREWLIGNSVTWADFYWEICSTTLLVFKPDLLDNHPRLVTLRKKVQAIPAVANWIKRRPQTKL

[14] = Cmax in dog at 0.5 mg/kg, po; assay type: ADME, organism-based, Canis lupus familiaris; design: dose 0.5 mg/kg, route oral; details: in vivo
Prostaglandin E synthase = molecular target: T2, Prostaglandin E synthase (Homo sapiens, UniProt O14684); experiment: Inhibition of human recombinant mPGES-1 using PGH2 as substrate incubated 20 mins prior to substrate addition measured after 30 secs by EIA
T2 sequence (O14684 whole entry): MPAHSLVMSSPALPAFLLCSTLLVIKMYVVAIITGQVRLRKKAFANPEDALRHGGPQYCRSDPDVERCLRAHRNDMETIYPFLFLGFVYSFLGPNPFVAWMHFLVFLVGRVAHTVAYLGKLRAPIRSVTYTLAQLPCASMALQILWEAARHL

[15] = Plasma protein binding in human; assay type: ADME, cell-free; details: read-out: PPB (converted)
[16] = Inhibition of rat mPGES-1 transfected in CHOK1 cells using [3H]PGH2 as substrate; assay type: cell-based; details: cho-k1

SMILES | IC50 (Prostaglandin E synthase) [µM] | further results
O=C(N[C@H]1CCC[C@@H]1OCc1ccccc1)C1CCN(c2nc3cc(Cl)ccc3o2)CC1 | – | half-life [1]: 10.8 min; half-life [2]: 432 min; Tmax [3]: 30 min; fraction unbound [4]: 0.02; bioavailability [5]: 55%; half-life [6]: 80 min; MRT [7]: 486 min; IC50 [8]: > 100 µM; Papp [9]: 1.3 ×10⁻⁶ cm/s; half-life [10]: 7.2 min; IC50 [11]: > 10 µM; Vd [12]: 1 L/kg; IC50 [13]: > 10 µM; Cmax [14]: 1300 nM
O=C(N[C@H]1CCC[C@@H]1COc1ccccc1)C1CCN(c2nc3cc(Cl)ccc3o2)CC1 | 0.034 | fraction unbound [15]: < 0.01
O=C(N[C@@H]1CCC[C@@H]1COc1ccccc1)C1CCN(c2nc3cc(Cl)ccc3o2)CC1 | 0.0431 | –
O=C(N[C@H]1CCC[C@@H]1CO)C1CCN(c2nc3cc(Cl)ccc3o2)CC1 | 3.2 | –
O=C(N[C@@H]1CCC[C@@H]1CO)C1CCN(c2nc3cc(Cl)ccc3o2)CC1 | 0.785 | –
O=C(N[C@@H]1CCC[C@H]1OCC1CCCC1)C1CCN(c2nc3cc(Cl)ccc3o2)CC1 | 0.176 | –
CO[C@@H]1CCC[C@H]1NC(=O)C1CCN(c2nc3cc(Cl)ccc3o2)CC1 | 8.15 | –
CCCCO[C@@H]1CCC[C@H]1NC(=O)C1CCN(c2nc3cc(Cl)ccc3o2)CC1 | 0.826 | –
O=C(NC1CCCC1C(=O)O)C1CCN(c2nc3cc(Cl)ccc3o2)CC1 (stereo unspecified) | 7.18 | –
O=C(NC1CCCC1c1ccccc1)C1CCN(c2nc3cc(Cl)ccc3o2)CC1 (stereo unspecified) | 0.291 | –
CC1CCCC1NC(=O)C1CCN(c2nc3cc(Cl)ccc3o2)CC1 (stereo unspecified) | 0.242 | –
O=C(NC1CCCCCC1)C1CCN(c2nc3cc(Cl)ccc3o2)CC1 | 0.821 | –
O=C(NC1CCC1)C1CCN(c2nc3cc(Cl)ccc3o2)CC1 | 3.01 | –
CN(C(=O)C1CCN(c2nc3cc(Cl)ccc3o2)CC1)C1CCCC1 | > 30 | –
O=C(NC1CCCC1)N1CCCN(c2nc3cc(Cl)ccc3o2)CC1 | 12.9 | –
O=C(NC1CCCC1)N1CCN(c2nc3cc(Cl)ccc3o2)CC1 | > 10 | –
O=S(=O)(NC1CCCC1)C1CCN(c2nc3cc(Cl)ccc3o2)CC1 | > 10 | –
O=C(CCCNc1nc2cc(Cl)ccc2o1)NC1CCCC1 | > 10 | –
CSCCNC(=O)C1CCN(c2nc3cc(Cl)ccc3o2)CC1 | 1.2 | –
O=C(NC1CCCC1)C1CCN(c2nc3cc(Cl)ccc3o2)CC1 | – | IC50 [8]: > 100 µM; fraction unbound [15]: 0.005
CC(C)c1ccc2c(c1)c(SC(C)(C)C)c(CC(C)(C)C(=O)O)n2Cc1ccc(Cl)cc1 | – | IC50 [16]: 8.2 µM
